“Also recorded” adds a separate entry of the source. Read-outs that look alike come from different tables or passages of the source.
Experiments:
LNCaP-abl cells [1] = assay: Proliferation of LNCaP-abl cells with enzalutamide by live cell imaging; type: cell-based; conditions: 10 μM enzalutamide
Method: Resistance to ARSI therapy is a major driver of PC related mortality. In this example, PRAC1-negative LNCaP-abl cells were grown in fully supplemented growth media (RPMI plus 10% FBS) in the absence or presence of 10 μM enzalutamide. Cell proliferation was determined longitudinally by live cell imaging using a Cytation™ 5 imaging instrument. […] Restoring PRAC1 function can result in re-sensitization of ARSI therapy (FIG. 4).

AR LBD = target: T1, AR LBD (Homo sapiens, UniProt P10275); assay: Recombinant protein-based binding assay by surface plasmon resonance; conditions: highly stringent conditions (0.5M NaCl)
T1 sequence (P10275 669-900 limits assumed): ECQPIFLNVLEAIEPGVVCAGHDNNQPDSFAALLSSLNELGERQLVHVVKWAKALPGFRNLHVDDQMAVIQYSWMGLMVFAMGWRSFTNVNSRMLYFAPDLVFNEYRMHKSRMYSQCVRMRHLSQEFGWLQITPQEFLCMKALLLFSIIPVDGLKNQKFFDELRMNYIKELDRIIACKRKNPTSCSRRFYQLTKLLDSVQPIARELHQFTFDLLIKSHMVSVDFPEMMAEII

full-length AR = target: T2, full-length AR (Homo sapiens, UniProt P10275); assay: Binding to purified full-length AR and effect on its DNA binding activity; type: biochemical
T2 construct: made in house
T2 sequence (P10275 1-920): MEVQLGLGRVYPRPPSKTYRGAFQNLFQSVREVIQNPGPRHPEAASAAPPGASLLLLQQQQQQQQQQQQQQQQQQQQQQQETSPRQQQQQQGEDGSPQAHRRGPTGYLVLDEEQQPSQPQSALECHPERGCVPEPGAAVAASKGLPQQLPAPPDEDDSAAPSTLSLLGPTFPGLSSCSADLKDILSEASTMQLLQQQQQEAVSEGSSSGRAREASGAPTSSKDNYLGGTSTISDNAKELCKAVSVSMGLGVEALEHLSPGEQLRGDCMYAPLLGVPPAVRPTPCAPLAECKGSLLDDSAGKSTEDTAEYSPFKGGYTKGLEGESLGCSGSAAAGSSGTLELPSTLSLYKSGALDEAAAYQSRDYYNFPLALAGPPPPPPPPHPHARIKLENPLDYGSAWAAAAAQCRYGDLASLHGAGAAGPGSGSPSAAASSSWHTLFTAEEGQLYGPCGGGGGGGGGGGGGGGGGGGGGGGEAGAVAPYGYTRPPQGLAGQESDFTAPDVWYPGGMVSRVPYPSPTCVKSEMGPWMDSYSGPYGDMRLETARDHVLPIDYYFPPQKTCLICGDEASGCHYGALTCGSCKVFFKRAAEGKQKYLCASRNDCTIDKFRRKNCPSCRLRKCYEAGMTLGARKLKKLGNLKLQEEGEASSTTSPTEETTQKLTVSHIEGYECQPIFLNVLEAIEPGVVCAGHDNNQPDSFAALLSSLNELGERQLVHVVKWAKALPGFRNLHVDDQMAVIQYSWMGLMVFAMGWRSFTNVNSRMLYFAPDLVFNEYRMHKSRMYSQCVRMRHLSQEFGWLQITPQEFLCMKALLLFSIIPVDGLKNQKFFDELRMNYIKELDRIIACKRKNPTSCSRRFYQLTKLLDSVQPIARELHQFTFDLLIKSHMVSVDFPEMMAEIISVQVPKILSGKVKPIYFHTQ

LNCaP-abl cells [2] = assay: Cell viability of LNCaP-abl cells exposed to PRAC1 peptides (CellTiter-Blue, 72 hours); type: cell-based; conditions: increasing concentrations of peptide
Method: (§1) PRAC1-negative LNCaP-abl cells were grown and exposed to increasing concentrations of the cell-permeable peptides, and cell viability was measured after 72 hours using CellTiter-Blue® (Patel et al., Cancer Res. Commun. 2(5):277-285 2022. doi: 10.1158/2767-9764.crc-21-0156. Epub 2022 May 2). […] The PRAC-F6 peptide was further tested for cell permeability.
(§2) Cell viability of androgen receptor negative and androgen receptor positive cells was tested in vitro. The androgen positive cell lines LNCaP and LNCaP-abl and the androgen receptor negative cell lines PC3 and DU145 were incubated with the PRAC-F6, carboxy terminal peptide including the TAT cell penetration peptide. Cell viability was measured after 72 hours using CellTiter-Blue®.
LNCaP-abl cells were incubated with increasing concentrations of PRAC1 peptides, and cell viability was determined after 72 hours using CellTiter-Blue®. […]

MCF7 = assay: Cell viability of MCF7 breast cancer cells (CellTiter-Blue); type: cell-based; conditions: MCF7 (estrogen and progesterone receptor positive), relative to scrambled control peptide
Text: Estrogen and progesterone receptor positive breast cancer cell line MCF7 with PRAC1 peptide […] FIG. 8A.

[3] = system: human prostate cancer LAPC4-CR cells; assay: In vivo prostate cancer xenograft model (LAPC4-CR in castrated NSG mice); conditions: castrated male NSG mice, intraperitoneally daily, versus scrambled control peptide
Method: The peptide was also tested in an in vivo in prostate cancer xenograft model. Male NOD SCID gamma (NSG) mice were chemically castrated by subcutaneous injection of degarelix. Mice were then engrafted with PRAC1-negative human prostate cancer LAPC4-CR cells. When tumors reached palpable size, PRAC1 peptide PRAC-F6 or a scrambled control peptide (sc) were delivered intraperitoneally daily. Tumor size was measured by caliper.

LNCaP = assay: Cell viability of androgen receptor positive LNCaP cells (CellTiter-Blue, 72 hours); type: cell-based; conditions: LNCaP (AR positive)
Method: as §2, with “peptide.” for “peptide. Cell viability was measured after 72 hours using CellTiter-Blue®.”

LNCaP-abl cells [4] = conditions: N-terminally FITC-labeled peptide, flow cytometry
Method: as §1

PC3 = assay: Cell viability of androgen receptor negative PC3 cells (CellTiter-Blue, 72 hours); type: cell-based; conditions: PC3 (AR negative)
Method: as §2, with “peptide.” for “peptide. Cell viability was measured after 72 hours using CellTiter-Blue®.”

DU145 = assay: Cell viability of androgen receptor negative DU145 cells (CellTiter-Blue, 72 hours); type: cell-based; conditions: DU145 (AR negative)
Method: as §2, with “peptide.” for “peptide. Cell viability was measured after 72 hours using CellTiter-Blue®.”

CNC(=O)c1ccc(N2C(=S)N(c3ccc(C#N)c(C(F)(F)F)c3)C(=O)C2(C)C)cc1F [enzalutamide]
cell proliferation / sensitivity to enzalutamide (LNCaP-abl cells [1]; LNCaP-abl cells transduced with control vector (RFP), RPMI plus 10% FBS): resistant to enzalutamide across a broad concentration range | cell proliferation / sensitivity to enzalutamide (LNCaP-abl cells [1]; LNCaP-abl cells with re-expression of PRAC1 (lentiviral ORF1)): sensitization to enzalutamide and significant growth suppression; also recorded: restoration of sensitivity to this drug

MLACKVRQAGFWSPPLQREQRCCAPISQIKDRPILLPPRVLFSLIRKHLL (listed as Homo sapiens) [PRAC1, PRAC1 protein encoded by ORF1 of PRAC1 gene]
binding to AR LBD (AR LBD): specifically binds the AR LBD | binding to full-length AR and change of its DNA binding activity (full-length AR): specifically binds and alters full-length AR's DNA binding activity

PPRVLFSLARKHLLRKKRRQRRRG [SEQ ID NO:27, isoleucine-to-alanine substitution mutant]
cell viability (LNCaP-abl cells [2]): no effect on cell viability

PPRVLFSLIRKHLLRKKRRQRRRG [SEQ ID NO:18]
cell viability (MCF7): dose-dependent decrease in cell viability; also recorded: dose-dependent decrease is cell viability | cell viability (LNCaP-abl cells [2]): profound anti-tumor cell activity

LFSLIRKHLLRKKRRQRRRG [PRAC1-F6, C-terminus of PRAC1 linked to the cell permeable TAT peptide]
tumor growth (tumor size by caliper) [3]: suppression of LAPC4-CR tumor growth | tumor growth (tumor size by caliper) ([3]; listed as PRAC-F6): suppression of tumor growth | cell viability (LNCaP): profound dose-dependent decrease in cell viability | cell viability (LNCaP; listed as PRAC-F6): profound loss of viability | peptide uptake (cellular internalization) (LNCaP-abl cells [4]; listed as PRAC-F6): rapid cellular internalization | peptide uptake (cellular internalization) (LNCaP-abl cells [4]; listed as SEQ ID NO:17): uptake | cell viability (PC3): Only AR-expressing cell lines show profound dose-dependent decrease in cell viability | cell viability (PC3; listed as PRAC-F6): only AR-expressing cell lines show a profound loss of viability | cell viability (DU145): Only AR-expressing cell lines show profound dose-dependent decrease in cell viability | cell viability (DU145; listed as PRAC-F6): only AR-expressing cell lines show a profound loss of viability | cell viability (LNCaP-abl cells [2]): biologically active in reducing cell viability; also recorded: profound dose-dependent decrease in cell viability | cell viability (LNCaP-abl cells [2]; listed as PRAC-F6): profound loss of viability

PPRVLFSLIAKHLLRKKRRQRRRG [SEQ ID NO:28, arginine-to-alanine mutant]
cell viability (LNCaP-abl cells [2]): attenuated activity on cell viability

— patent US20260265300A1, “TARGETING PRAC1 IN STEROID HORMONE DRIVEN CANCER” (Fred Hutchinson Cancer Center, priority 2023, published 2026)
